Experimental data published in ChEMBL document CHEMBL3351418, “In vitro induction of apoptosis by isosclerone from marine-derived fungus Aspergillus fumigatus” (Bioorg Med Chem Lett, 2014).
Active and inactive are the calls of the source.

Assays:
MCF7 [1] = test: Cytotoxicity against human MCF7 cells assessed as cell viability at 60 uM after 24 hrs by MTT assay (Rvb =100%); format: functional; conditions: MCF7, 24 h, read-out: Activity
MCF7 [2] = test: Induction of apoptosis in human MCF7 cells assessed as down-regulation of Bcl-2 protein expression at 20 to 60 uM after 24 hrs by Western blot analysis; format: functional, cell-based
MCF7 [3] = test: Cytotoxicity against human MCF7 cells assessed as cell viability at 40 uM after 36 hrs by MTT assay (Rvb =100%); format: functional; conditions: MCF7, 36 h, read-out: Activity
MCF7 [4] = test: Induction of apoptosis in human MCF7 cells assessed as increase in mitochondrial Apaf-1 release at 20 to 60 uM after 24 hrs by Western blot analysis; format: functional, cell-based
MCF7 [5] = test: Downregulation of PI3K gene expression in human MCF7 cells at 20 to 60 uM by RT-PCR analysis; format: functional, cell-based
MCF7 [6] = test: Induction of apoptosis in human MCF7 cells assessed as increase in DNA damage after 24 hrs by Hoechst staining based inverted fluorescent microscopy; format: functional, cell-based
MCF7 [7] = test: Cytotoxicity against human MCF7 cells assessed as cell viability at 60 uM after 36 hrs by MTT assay (Rvb =100%); format: functional; conditions: MCF7, 36 h, read-out: Activity
MCF7 [8] = test: Cytotoxicity against human MCF7 cells assessed as cell viability at 20 uM by MTT assay; format: functional, cell-based; conditions: TDE = time-dependent effect
MCF7 [9] = test: Downregulation of Akt gene expression in human MCF7 cells at 20 to 60 uM by RT-PCR analysis; format: functional, cell-based
MCF7 [10] = test: Downregulation of Akt protein expression in human MCF7 cells at 20 to 60 uM by Western blot analysis; format: functional, cell-based
MCF7 [11] = test: Inhibition of P65 protein expression in human MCF7 cells after 24 hrs by Western blot analysis; format: functional, cell-based
MCF7 [12] = test: Cytotoxicity against human MCF7 cells assessed as cell viability after 24 to 36 hrs by MTT assay; format: functional, cell-based
MCF7 [13] = test: Induction of apoptosis in human MCF7 cells assessed as increase in caspase-9 expression by Western blot analysis; format: functional, cell-based
MCF7 [14] = test: Induction of apoptosis in human MCF7 cells assessed as increase in caspase-9 gene expression by RT-PCR analysis; format: functional, cell-based
[15] = biological target: T1, Inhibitor of nuclear factor kappa-B kinase subunit alpha (Homo sapiens) (UniProt O15111); test: Inhibition of human IKK expression in human MCF7 cells after 24 hrs by Western blot analysis; format: cell-based
T1 sequence (whole entry): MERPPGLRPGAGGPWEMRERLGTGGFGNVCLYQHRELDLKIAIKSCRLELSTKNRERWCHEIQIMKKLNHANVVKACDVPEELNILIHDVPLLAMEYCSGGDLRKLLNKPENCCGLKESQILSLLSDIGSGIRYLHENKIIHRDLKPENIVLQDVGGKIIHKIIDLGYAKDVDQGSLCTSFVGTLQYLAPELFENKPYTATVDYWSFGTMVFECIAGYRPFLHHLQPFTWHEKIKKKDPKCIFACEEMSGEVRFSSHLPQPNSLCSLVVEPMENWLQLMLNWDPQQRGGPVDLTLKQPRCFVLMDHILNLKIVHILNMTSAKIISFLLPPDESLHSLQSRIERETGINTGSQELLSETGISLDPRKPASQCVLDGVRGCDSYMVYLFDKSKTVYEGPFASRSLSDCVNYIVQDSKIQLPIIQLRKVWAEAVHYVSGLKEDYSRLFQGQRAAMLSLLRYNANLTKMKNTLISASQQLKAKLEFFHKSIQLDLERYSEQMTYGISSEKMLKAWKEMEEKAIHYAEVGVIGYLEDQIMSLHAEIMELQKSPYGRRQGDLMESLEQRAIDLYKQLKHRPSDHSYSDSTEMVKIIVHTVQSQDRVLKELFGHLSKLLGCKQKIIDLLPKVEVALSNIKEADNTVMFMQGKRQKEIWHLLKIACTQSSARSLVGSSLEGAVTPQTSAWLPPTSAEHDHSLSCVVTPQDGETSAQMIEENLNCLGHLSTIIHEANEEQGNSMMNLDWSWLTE

[16] = biological target: T2, Inhibitor of nuclear factor kappa-B kinase subunit beta (Homo sapiens) (UniProt O14920); test: Inhibition of human IKKbeta activation in human MCF7 cells by Western blot analysis; format: cell-based
T2 sequence (whole entry): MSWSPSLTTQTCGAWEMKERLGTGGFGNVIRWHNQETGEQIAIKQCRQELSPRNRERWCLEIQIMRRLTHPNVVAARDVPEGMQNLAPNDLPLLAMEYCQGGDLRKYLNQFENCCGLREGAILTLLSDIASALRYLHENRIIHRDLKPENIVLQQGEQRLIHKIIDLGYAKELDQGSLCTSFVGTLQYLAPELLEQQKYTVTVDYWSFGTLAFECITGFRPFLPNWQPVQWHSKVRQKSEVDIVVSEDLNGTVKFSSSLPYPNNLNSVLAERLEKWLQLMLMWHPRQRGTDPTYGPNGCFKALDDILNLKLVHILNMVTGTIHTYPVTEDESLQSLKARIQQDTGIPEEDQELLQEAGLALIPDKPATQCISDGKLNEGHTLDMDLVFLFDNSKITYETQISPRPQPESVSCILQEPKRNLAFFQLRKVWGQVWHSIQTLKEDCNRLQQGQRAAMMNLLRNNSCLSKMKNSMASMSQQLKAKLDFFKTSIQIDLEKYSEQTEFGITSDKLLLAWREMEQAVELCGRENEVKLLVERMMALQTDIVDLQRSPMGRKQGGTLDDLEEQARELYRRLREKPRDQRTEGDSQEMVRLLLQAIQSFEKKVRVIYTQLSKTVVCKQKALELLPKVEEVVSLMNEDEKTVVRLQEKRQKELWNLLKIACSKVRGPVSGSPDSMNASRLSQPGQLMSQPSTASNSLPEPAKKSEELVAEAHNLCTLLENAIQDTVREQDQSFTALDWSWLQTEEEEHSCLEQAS

[17] = biological target: Nuclear factor NF-kappa-B complex (Homo sapiens) (UniProt Q00653+P19838+Q04206); test: Inhibition of NF-kappaB activation in human MCF7 cells; format: cell-based
Sequence of Nuclear factor NF-kappa-B complex (Homo sapiens) (P19838 whole entry, looked up): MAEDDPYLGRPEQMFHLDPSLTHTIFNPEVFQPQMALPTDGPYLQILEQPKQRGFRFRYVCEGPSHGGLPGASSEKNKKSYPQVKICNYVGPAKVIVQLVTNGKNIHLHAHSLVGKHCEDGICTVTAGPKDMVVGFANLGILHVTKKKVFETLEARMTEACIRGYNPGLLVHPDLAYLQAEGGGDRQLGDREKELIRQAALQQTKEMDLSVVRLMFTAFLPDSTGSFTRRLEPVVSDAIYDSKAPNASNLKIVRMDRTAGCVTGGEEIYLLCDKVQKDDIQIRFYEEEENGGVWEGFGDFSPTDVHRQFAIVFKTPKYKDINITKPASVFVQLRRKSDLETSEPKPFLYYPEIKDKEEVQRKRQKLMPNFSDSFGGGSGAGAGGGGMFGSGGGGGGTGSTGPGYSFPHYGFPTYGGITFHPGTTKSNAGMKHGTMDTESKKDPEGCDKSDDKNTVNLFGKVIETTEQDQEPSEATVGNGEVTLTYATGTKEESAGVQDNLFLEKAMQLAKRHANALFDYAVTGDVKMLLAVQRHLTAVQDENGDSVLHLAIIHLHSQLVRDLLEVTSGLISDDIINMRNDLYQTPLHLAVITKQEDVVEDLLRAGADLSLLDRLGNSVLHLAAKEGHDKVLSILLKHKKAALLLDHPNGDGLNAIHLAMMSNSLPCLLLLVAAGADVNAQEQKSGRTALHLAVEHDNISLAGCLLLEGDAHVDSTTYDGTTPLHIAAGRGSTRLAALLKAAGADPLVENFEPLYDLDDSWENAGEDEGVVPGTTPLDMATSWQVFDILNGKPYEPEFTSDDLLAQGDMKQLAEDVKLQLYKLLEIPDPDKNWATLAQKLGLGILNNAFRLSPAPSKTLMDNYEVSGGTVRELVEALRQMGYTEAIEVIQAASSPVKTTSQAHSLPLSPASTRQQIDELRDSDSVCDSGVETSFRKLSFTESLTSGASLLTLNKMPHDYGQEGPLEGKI
Sequence of Nuclear factor NF-kappa-B complex (Homo sapiens) (Q00653 whole entry, looked up): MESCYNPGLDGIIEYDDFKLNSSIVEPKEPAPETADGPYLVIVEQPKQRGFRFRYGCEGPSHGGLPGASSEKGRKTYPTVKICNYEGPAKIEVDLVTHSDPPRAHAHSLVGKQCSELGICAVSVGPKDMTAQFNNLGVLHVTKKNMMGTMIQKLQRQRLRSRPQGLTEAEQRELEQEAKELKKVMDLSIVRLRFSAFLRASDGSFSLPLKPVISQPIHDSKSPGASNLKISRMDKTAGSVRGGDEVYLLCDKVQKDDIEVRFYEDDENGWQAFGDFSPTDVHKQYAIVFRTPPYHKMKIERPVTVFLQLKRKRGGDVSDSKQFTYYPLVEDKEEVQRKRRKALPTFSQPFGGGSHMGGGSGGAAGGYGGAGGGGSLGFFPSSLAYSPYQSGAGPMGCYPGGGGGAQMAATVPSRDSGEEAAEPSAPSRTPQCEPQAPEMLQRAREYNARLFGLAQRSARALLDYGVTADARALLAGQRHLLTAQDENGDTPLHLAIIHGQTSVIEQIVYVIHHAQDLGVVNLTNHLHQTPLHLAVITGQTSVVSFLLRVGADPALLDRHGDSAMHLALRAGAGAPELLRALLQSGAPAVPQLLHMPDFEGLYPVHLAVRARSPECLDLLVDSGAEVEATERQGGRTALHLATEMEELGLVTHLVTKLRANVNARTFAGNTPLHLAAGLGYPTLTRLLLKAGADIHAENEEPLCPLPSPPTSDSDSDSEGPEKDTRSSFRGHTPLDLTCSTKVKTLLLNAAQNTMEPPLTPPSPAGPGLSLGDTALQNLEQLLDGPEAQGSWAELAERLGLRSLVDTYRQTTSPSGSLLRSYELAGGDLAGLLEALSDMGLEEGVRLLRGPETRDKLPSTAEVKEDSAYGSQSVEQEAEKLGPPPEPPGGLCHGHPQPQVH
Sequence of Nuclear factor NF-kappa-B complex (Homo sapiens) (Q04206 whole entry, looked up): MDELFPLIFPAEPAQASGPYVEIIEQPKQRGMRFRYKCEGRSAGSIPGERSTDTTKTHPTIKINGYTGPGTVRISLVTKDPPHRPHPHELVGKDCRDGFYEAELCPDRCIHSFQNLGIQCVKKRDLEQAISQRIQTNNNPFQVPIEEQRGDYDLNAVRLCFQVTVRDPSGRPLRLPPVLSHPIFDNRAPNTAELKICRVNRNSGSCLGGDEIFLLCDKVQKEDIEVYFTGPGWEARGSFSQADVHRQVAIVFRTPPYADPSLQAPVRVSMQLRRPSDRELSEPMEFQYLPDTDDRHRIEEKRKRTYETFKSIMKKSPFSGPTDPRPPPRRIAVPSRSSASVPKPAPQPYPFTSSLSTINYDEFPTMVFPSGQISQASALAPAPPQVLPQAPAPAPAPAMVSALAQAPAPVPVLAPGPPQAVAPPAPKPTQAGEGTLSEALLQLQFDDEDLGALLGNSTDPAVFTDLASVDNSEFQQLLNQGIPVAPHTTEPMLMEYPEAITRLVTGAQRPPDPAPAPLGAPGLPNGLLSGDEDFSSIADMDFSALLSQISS

MCF7 [18] = test: Induction of apoptosis in human MCF7 cells assessed as increase in mitochondrial cytochrome C release at 20 to 60 uM after 24 hrs by Western blot analysis; format: functional, cell-based
MCF7 [19] = test: Effect on phosphorylation of Akt in human MCF7 cells at 20 to 60 uM by Western blot analysis; format: cell-based
MCF7 [20] = test: Cytotoxicity against human MCF7 cells assessed as cell viability at 40 uM after 24 hrs by MTT assay (Rvb =100%); format: functional; conditions: MCF7, 24 h, read-out: Activity
MCF7 [21] = test: Induction of apoptosis in human MCF7 cells assessed as increase in caspase-8 gene expression by RT-PCR analysis; format: functional, cell-based
[22] = biological target: Apoptosis regulator Bcl-2 (Homo sapiens, UniProt P10415); test: Binding affinity to Bcl-2 (unknown origin)
Sequence of Apoptosis regulator Bcl-2 (P10415 whole entry): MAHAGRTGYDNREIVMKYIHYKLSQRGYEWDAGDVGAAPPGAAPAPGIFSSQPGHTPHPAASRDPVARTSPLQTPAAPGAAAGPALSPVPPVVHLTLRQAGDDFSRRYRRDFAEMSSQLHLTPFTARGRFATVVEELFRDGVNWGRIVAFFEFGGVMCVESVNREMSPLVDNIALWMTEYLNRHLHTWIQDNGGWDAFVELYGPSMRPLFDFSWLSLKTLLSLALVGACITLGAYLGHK

MCF7 [23] = test: Induction of apoptosis in human MCF7 cells assessed as up-regulation of Bax gene expression at 20 to 60 uM after 24 hrs by RT-PCR analysis; format: functional, cell-based
MCF7 [24] = test: Induction of apoptosis in human MCF7 cells assessed as increase in caspase-3 expression by Western blot analysis; format: functional, cell-based
MCF7 [25] = test: Inhibition of P50 protein expression in human MCF7 cells after 24 hrs by Western blot analysis; format: functional, cell-based
MCF7 [26] = test: Induction of apoptosis in human MCF7 cells assessed as increase in caspase-8 expression by Western blot analysis; format: functional, cell-based
MCF7 [27] = test: Induction of apoptosis in human MCF7 cells assessed as increase in DNA fragmentation […] by agarose gel electrophoresis; format: functional, cell-based
[28] = biological target: T1, Inhibitor of nuclear factor kappa-B kinase subunit alpha (Homo sapiens); test: Inhibition of human IKKalpha activation in human MCF7 cells by Western blot analysis; format: cell-based
MCF7 [29] = test: Downregulation of PI3K protein expression in human MCF7 cells at 20 to 60 uM by Western blot analysis; format: functional, cell-based
MCF7 [30] = test: Induction of apoptosis in human MCF7 cells assessed as up-regulation of Bax protein expression at 20 to 60 uM after 24 hrs by Western blot analysis; format: functional, cell-based
MCF7 [31] = test: Induction of apoptosis in human MCF7 cells assessed as increase in caspase-3 gene expression by RT-PCR analysis; format: functional, cell-based
MCF7 [32] = test: Cytotoxicity against human MCF7 cells assessed as cell viability at 20 uM after 36 hrs by MTT assay (Rvb =100%); format: functional; conditions: MCF7, 36 h, read-out: Activity
MCF7 [33] = test: Cytotoxicity against human MCF7 cells assessed as cell viability at 20 uM after 24 hrs by MTT assay (Rvb =100%); format: functional; conditions: MCF7, 24 h, read-out: Activity
Caspase-3 = biological target: T3, Caspase-3 (Homo sapiens, UniProt P42574); test: Binding affinity to procaspase-3 (unknown origin)
T3 sequence (P42574 whole entry): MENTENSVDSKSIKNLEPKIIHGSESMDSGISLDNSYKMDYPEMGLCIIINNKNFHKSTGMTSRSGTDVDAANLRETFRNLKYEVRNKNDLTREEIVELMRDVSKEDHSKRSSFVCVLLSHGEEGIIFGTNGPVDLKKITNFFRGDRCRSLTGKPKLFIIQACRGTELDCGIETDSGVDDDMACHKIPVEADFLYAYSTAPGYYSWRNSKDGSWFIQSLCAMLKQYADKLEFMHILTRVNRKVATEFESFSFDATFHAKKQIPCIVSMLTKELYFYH

O=C1CC[C@H](O)c2cccc(O)c21
87%: viability at 20 µM (MCF7 [32])
50%: viability at 60 µM (MCF7 [7])
89%: viability at 40 µM (MCF7 [20])
732 µM: Ki (Caspase-3)
97%: viability at 20 µM (MCF7 [33])
active: inhibition (MCF7 [2]) | Activity (MCF7 [4]) | inhibition (MCF7 [5]) | Activity (MCF7 [6]) Dose-dependent effect | inhibition (MCF7 [8]) tde | inhibition (MCF7 [9]) | inhibition (MCF7 [10]) | inhibition (MCF7 [11]) Dose-dependent effect | inhibition (MCF7 [12]) Dose-dependent effect | Activity (MCF7 [13]) Dose-dependent effect | Activity (MCF7 [14]) Dose-dependent effect | inhibition [15] | inhibition [16] | inhibition [17] Dose-dependent effect | Activity (MCF7 [18]) | Activity (MCF7 [21]) Dose-dependent effect | Activity (MCF7 [23]) | Activity (MCF7 [24]) Dose-dependent effect | inhibition (MCF7 [25]) Dose-dependent effect | Activity (MCF7 [26]) Dose-dependent effect | Activity (MCF7 [27]) Dose-dependent effect | inhibition [28] | inhibition (MCF7 [29]) | Activity (MCF7 [30]) | Activity (MCF7 [31]) Dose-dependent effect
70%: viability at 60 µM (MCF7 [1])
66%: viability at 40 µM (MCF7 [3])
475 µM: Ki [22]
inactive: inhibition (MCF7 [19])
